Assay results as given in paper PMC9558510 (Cancers, 2022).

Tests used:
[1] = Observed steady-state serum concentrations (LC-MS/MS) in melanoma patients; type: in vivo, human; settings: for effect of co-medication with at least one P-gp inducer on individual mean trough concentrations / serum Cmin mean / serum Cmin median: standard dose
Protocol: Serum samples were collected regularly during each routine outpatient visit from study enrollment until January 2022 or until treatment discontinuation. If possible, blood sampling was performed before the next drug administration, but any time interval between the last administration and blood withdrawal was accepted. The steady-state was assumed after continuous dosing for fourteen days for both compounds.
Hydroxy-dabrafenib concentrations were analyzed using a different previously published LC-MS/MS method with an LLOQ of 10 ng/mL [37]. […] Hydroxy-dabrafenib was not quantified in capillary blood samples as the methodology was not available at the time of analysis. All the methods have been validated according to the guidelines of the U.S. Food and Drug Administration and/or the European Medicines Agency.
Data were collected and processed using Microsoft Excel 2016 Version 16.0 (Microsoft Corporation, Redmond, WA, USA). Statistical calculations and visualization of results were performed with R Studio Version 1.2.5042 (RStudio Incorporation, Boston, MA, USA) running R version 4.0.5 (R Foundation for Statistical Computing, Vienna, Austria, 2020). For further analysis, serum concentrations were divided into groups according to time interval post-dose as follows: 0–5 h, 5–10 h, 10–14 h, and >14 h for (hydroxy-)dabrafenib and 0–10 h, 10–20 h, 20–30 h, and >30 h for trametinib. Concentrations < LLOQ were excluded from further statistical analyses. The concentrations of the same patient at the same dosage and within the same post-dose group were summarized into an individual mean serum concentration for descriptive statistical analysis to account for potential bias caused by the unbalanced number of samples per patient. […] The Wilcoxon […] test was used for unpaired samples. The correlations between individual PK parameters sampled from the conditional distribution during the generation of EBE (methods for estimation see below) and age, sex, body mass index (BMI), and co-medication were analyzed using analysis of variance (ANOVA) and Spearman’s correlation coefficient. Logistic regression was used to compare the risk of treatment discontinuations or dose reductions (dabrafenib dose reduction or discontinuation, trametinib dose reduction or discontinuation, or any dose reduction or discontinuation) with the corresponding predicted trough concentrations and area under the curve of a dosing interval (AUCτ) of dabrafenib, hydroxy-dabrafenib, and trametinib as well as with the composite predicted dabrafenib/hydroxy-dabrafenib trough concentration and with composite dabrafenib/hydroxy-dabrafenib AUCτ assuming standard dosing. The Hosmer–Lemeshow test was used to evaluate the goodness of fit for our logistic regression model. Due to the explorative nature of the study, p-values obtained from multiple comparisons were not corrected for multiple testing. A p-value < 0.05 was considered statistically significant.

[2] = design: method as in PMID 24408395; settings: cited from earlier work
[3] = design: method as in PMID 33846903; settings: cited from earlier work
[4] = serum, dabrafenib dose of 150 mg q12h

| Structure (SMILES) | effect of co-medication with at least one P-gp inducer on individual mean trough concentrations ([1]; serum) | serum Cmin mean ([1]; BMI (kg/m2) < 30) | serum Cmin median ([1]; BMI (kg/m2) < 30) | serum Cmin mean ([1]; BMI (kg/m2) >= 30) | serum Cmin median ([1]; BMI (kg/m2) >= 30) | serum Cmin mean ([1]; P-gp inducer: no) | serum Cmin median ([1]; P-gp inducer: no) | serum Cmin mean ([1]; P-gp inducer: yes) | serum Cmin median ([1]; P-gp inducer: yes) | serum Cmin mean ([1]; P-gp inhibitor: no) | serum Cmin median ([1]; P-gp inhibitor: no) | serum Cmin mean ([1]; P-gp inhibitor: yes) | serum Cmin median ([1]; P-gp inhibitor: yes) | serum Cmin mean ([1]; PPI: no) | serum Cmin median ([1]; PPI: no) | serum Cmin mean ([1]; PPI: yes) | serum Cmin median ([1]; PPI: yes) | serum Cmin mean ([1]; age above 65: no) | serum Cmin median ([1]; age above 65: no) | serum Cmin mean ([1]; age above 65: yes) | also measured |
| --- | --- | --- | --- | --- | --- | --- | --- | --- | --- | --- | --- | --- | --- | --- | --- | --- | --- | --- | --- | --- | --- |
| CC(=O)Nc1cccc(-n2c(=O)n(C3CC3)c(=O)c3c(Nc4ccc(I)cc4F)n(C)c(=O)c(C)c32)c1 [trametinib] | significant decrease | 11.2 ng/mL | 11.4 ng/mL | 9.93 ng/mL | 9.79 ng/mL | 11.5 ng/mL | 11.7 ng/mL | 9.3 ng/mL | 9.68 ng/mL | 10.9 ng/mL | 11.3 ng/mL | 10.5 ng/mL | 10.9 ng/mL | 10.8 ng/mL | 11.5 ng/mL | 10.7 ng/mL | 10.9 ng/mL | 10.6 ng/mL | 11.3 ng/mL | 10.9 ng/mL | median of mean trough concentration ([1]; serum, 2 mg q24h): 11.2 ng/mL; range of mean trough concentration ([1]; serum, 2 mg q24h): 6.22 to 15.9 ng/mL; serum Cmin median ([1]; age above 65: yes): 10.9 ng/mL; serum Cmin mean ([1]; sex female): 11.1 ng/mL; serum Cmin median ([1]; sex female): 11.3 ng/mL; serum Cmin mean ([1]; sex male): 10.6 ng/mL; serum Cmin median ([1]; sex male): 11.2 ng/mL |
| CC(C)(C)c1nc(-c2cccc(NS(=O)(=O)c3c(F)cccc3F)c2F)c(-c2ccnc(N)n2)s1 [dabrafenib] | no effect | 46.5 ng/mL | 42.9 ng/mL | 69.1 ng/mL | 54 ng/mL | 60.9 ng/mL | 48 ng/mL | 40.4 ng/mL | 41.8 ng/mL | 77.8 ng/mL | 52.9 ng/mL | 42.4 ng/mL | 41.8 ng/mL | 63.1 ng/mL | 51.6 ng/mL | 32.4 ng/mL | 32.4 ng/mL | 54.9 ng/mL | 43.5 ng/mL | 51.9 ng/mL | median of individual mean trough concentration [1, 4]: 45.0 ng/mL; range of individual mean trough concentration [1, 4]: 20 to 155 ng/mL; serum Cmin median ([1]; age above 65: yes): 42.9 ng/mL; serum Cmin mean ([1]; moderate CYP2C8 inhibitor: no): 58.9 ng/mL; serum Cmin median ([1]; moderate CYP2C8 inhibitor: no): 44.3 ng/mL; serum Cmin mean ([1]; moderate CYP2C8 inhibitor: yes): 46.9 ng/mL; serum Cmin median ([1]; moderate CYP2C8 inhibitor: yes): 47.4 ng/mL; serum Cmin mean ([1]; sex female): 75.5 ng/mL; serum Cmin median ([1]; sex female): 52.9 ng/mL; serum Cmin mean ([1]; sex male): 36.5 ng/mL; serum Cmin median ([1]; sex male): 39.3 ng/mL; CYP3A autoinduction: induction half-life [2]: approximately 67 h; half-life [2]: eight; protein binding [3]: > 99.5% |
